# Measured values: patent US7683048B2, “Polymorphis of a known thiophenecarboxylic acid dodecahydrocyclopenta (a) phenanthrenyl ester” (Novartis AG, priority 2002, dated 2010)
# What was measured:
# Assay type in all cases: physicochemical
# [1] = Stability of crystal forms after 4 weeks at 80° C., analyzed by XRPD; conditions: for Conversion in the solid state on storage: stored for 4 weeks at 80° C.; for Crystal form found by XRPD after storage (stability): 4 weeks at 80° C.
# Experimental: Samples of the compound of formula I in crystal form A, the compound of formula I in crystal form B, a mixture of both crystal forms and an amorphous form of the compound of formula I (obtained by spray drying) are stored for 4 weeks at 80° C. under different conditions and analyzed by X-ray powder diffraction (XRPD).
# [2] = Interconversion of crystal forms in the presence of solvent
# [3] = Heat of solution at 25° C. in acetone
# Experimental: The heat of solution of samples of crystal forms A and B of the compound of formula I are measured at 25° C. in acetone.
structure (smiles),measurement,setting,value
"COC(=O)[C@@]1(OC(=O)c2sccc2C)[C@H](C)CC2C3C[C@H](F)C4=CC(=O)C=C[C@]4(C)[C@@]3(Cl)[C@@H](O)C[C@@]21C (stereo partly drawn) [Amorphous form, 3-methylthiophene-2-carboxylic acid (6S,9R,10S,11S, 13S,16R,17R)-9-chloro-6-fluoro-11-hydroxy-17-methoxycarbonyl-10,13,16-trimethyl-3-oxo-6,7,8,9,10,11,12,13,14,15,16,17-dodecahydro-3H-cyclopenta[a]phenanthren-17-yl ester]",Conversion in the solid state on storage,"[1]; solid state, listed as amorphous form",can also convert into crystal form A
"COC(=O)[C@@]1(OC(=O)c2sccc2C)[C@H](C)CC2C3C[C@H](F)C4=CC(=O)C=C[C@]4(C)[C@@]3(Cl)[C@@H](O)C[C@@]21C (stereo partly drawn) [Crystal form A, 3-methylthiophene-2-carboxylic acid (6S,9R,10S,11S, 13S,16R,17R)-9-chloro-6-fluoro-11-hydroxy-17-methoxycarbonyl-10,13,16-trimethyl-3-oxo-6,7,8,9,10,11,12,13,14,15,16,17-dodecahydro-3H-cyclopenta[a]phenanthren-17-yl ester]",Conversion of crystal form in the presence of ethanol,[2]; in the presence of ethanol,converts to crystal form B
same,Heat of solution,[3]; listed as A,29.3 J/g
same,Relative thermodynamic stability (from heat of solution),[3]; versus crystal form B,more thermodynamically stable than crystal form B
same,Relative thermodynamic stability (from storage test),"[1]; solid state, versus crystal form B",more thermodynamically stable than crystal form B
"COC(=O)[C@@]1(OC(=O)c2sccc2C)[C@H](C)CC2C3C[C@H](F)C4=CC(=O)C=C[C@]4(C)[C@@]3(Cl)[C@@H](O)C[C@@]21C (stereo partly drawn) [Crystal form B, 3-methylthiophene-2-carboxylic acid (6S,9R,10S,11S, 13S,16R,17R)-9-chloro-6-fluoro-11-hydroxy-17-methoxycarbonyl-10,13,16-trimethyl-3-oxo-6,7,8,9,10,11,12,13,14,15,16,17-dodecahydro-3H-cyclopenta[a]phenanthren-17-yl ester]",Conversion of crystal form in the presence of isopropanol,[2]; in the presence of isopropanol,converts to crystal form A
same,Heat of solution,[3]; listed as B,17.9 J/g
same,Crystal form found by XRPD after storage (stability),"[1]; 75% r.h. (relative humidity), open",A + B
same,Crystal form found by XRPD after storage (stability),[1]; N2 + 2% water,A + B
same,Crystal form found by XRPD after storage (stability),[1]; O2,A + B
same,Conversion in the solid state on storage,"[1]; solid state, listed as crystal form B",can convert at least partially in the solid state into crystal form A
"COC(=O)[C@@]1(OC(=O)c2sccc2C)[C@H](C)CC2C3C[C@H](F)C4=CC(=O)C=C[C@]4(C)[C@@]3(Cl)[C@@H](O)C[C@@]21C (stereo partly drawn) [Crystal forms A + B, 3-methylthiophene-2-carboxylic acid (6S,9R,10S,11S, 13S,16R,17R)-9-chloro-6-fluoro-11-hydroxy-17-methoxycarbonyl-10,13,16-trimethyl-3-oxo-6,7,8,9,10,11,12,13,14,15,16,17-dodecahydro-3H-cyclopenta[a]phenanthren-17-yl ester]",Crystal form found by XRPD after storage (stability),[1]; N2,A + B
same,Crystal form found by XRPD after storage (stability),[1]; sealed,A + B
